Experiments:
[1] = molecular target: T1, Amine oxidase [flavin-containing] A (Homo sapiens, UniProt P21397); assay: Inhibition of human MAOA
T1 sequence (P21397 whole entry): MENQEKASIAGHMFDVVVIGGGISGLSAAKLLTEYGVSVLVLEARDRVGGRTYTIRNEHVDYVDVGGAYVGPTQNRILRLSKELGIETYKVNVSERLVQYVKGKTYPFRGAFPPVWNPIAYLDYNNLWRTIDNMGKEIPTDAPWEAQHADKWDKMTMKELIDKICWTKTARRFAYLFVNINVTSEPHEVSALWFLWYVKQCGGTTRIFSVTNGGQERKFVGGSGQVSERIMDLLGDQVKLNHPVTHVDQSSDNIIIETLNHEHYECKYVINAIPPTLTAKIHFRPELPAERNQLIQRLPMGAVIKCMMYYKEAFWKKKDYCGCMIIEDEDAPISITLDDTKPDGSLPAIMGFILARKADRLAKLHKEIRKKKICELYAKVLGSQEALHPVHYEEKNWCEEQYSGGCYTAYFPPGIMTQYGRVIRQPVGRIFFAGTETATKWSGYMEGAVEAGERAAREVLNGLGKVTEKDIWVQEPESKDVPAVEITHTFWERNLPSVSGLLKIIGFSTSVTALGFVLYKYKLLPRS

[2] = molecular target: T2, Amine oxidase [flavin-containing] B (Homo sapiens, UniProt P27338); assay: Inhibition of human recombinant MAOB expressed in Pichia pastoris by kinetic assay
T2 sequence (P27338 whole entry): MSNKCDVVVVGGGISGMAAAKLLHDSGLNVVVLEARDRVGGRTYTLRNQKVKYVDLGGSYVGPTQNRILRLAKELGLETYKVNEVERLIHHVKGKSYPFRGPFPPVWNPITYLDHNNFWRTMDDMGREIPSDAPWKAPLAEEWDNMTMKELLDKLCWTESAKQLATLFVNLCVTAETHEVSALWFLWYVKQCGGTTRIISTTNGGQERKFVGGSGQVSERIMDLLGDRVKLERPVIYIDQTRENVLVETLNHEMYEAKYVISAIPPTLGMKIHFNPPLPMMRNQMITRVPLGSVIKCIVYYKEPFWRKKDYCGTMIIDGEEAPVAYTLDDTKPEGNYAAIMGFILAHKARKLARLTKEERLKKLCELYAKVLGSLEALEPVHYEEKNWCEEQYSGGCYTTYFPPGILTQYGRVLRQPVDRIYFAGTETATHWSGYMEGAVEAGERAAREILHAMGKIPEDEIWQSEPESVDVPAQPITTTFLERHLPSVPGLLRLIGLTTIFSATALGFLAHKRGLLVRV

[3] = molecular target: T3, Amine oxidase [flavin-containing] B (Rattus norvegicus, UniProt P19643); assay: Inhibition of rat membrane MAOB
T3 sequence (P19643 whole entry): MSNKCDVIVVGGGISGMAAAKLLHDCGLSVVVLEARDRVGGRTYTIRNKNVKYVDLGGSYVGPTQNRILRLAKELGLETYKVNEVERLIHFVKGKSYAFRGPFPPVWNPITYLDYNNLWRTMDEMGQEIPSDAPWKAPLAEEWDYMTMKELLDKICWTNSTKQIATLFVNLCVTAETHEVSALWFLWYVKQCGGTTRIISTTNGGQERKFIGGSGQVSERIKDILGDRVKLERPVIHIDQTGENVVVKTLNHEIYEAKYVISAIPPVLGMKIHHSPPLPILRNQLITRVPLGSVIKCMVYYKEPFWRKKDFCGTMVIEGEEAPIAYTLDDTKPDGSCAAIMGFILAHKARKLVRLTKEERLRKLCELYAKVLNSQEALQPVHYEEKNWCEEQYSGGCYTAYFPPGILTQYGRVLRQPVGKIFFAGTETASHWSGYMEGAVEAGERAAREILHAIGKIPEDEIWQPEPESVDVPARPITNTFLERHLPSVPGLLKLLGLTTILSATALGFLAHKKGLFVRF

[4] = molecular target: T2, Amine oxidase [flavin-containing] B; assay: Inhibition of human recombinant MAOB expressed in Pichia pastoris at stoichiometric level of 1 mol/mol of E-FAD
[5] = molecular target: T2, Amine oxidase [flavin-containing] B; assay: Inhibition of human recombinant MAOB expressed in Pichia pastoris assessed as fluoride ion release by ion-selective electrode experiment
[6] = molecular target: T2, Amine oxidase [flavin-containing] B; assay: Inhibition of human recombinant MAOB expressed in Pichia pastoris assessed as effect on flavin absorbance shift by spectroscopy
[7] = molecular target: T2, Amine oxidase [flavin-containing] B; assay: Inhibition of human recombinant MAOB expressed in Pichia pastoris assessed as formation of intense negative dichroic band at […] by CD spectroscopy
[8] = molecular target: T2, Amine oxidase [flavin-containing] B; assay: Inhibition of reduced human recombinant MAOB expressed in Pichia pastoris assessed as increase in absorbance of reduced enzyme; parameters: scale not given: the % may be the effect or the level left
[9] = molecular target: T2, Amine oxidase [flavin-containing] B; assay: Inhibition of oxidized human recombinant MAOB expressed in Pichia pastoris under anaerobic assay condition
[10] = molecular target: T1, Amine oxidase [flavin-containing] A; assay: Inhibition of human recombinant MAOA expressed in Pichia pastoris by kinetic assay
[11] = molecular target: T1, Amine oxidase [flavin-containing] A; assay: Inhibition of oxidized human recombinant MAOA expressed in Pichia pastoris under anaerobic assay condition

| Ki [1] | Ki [2] | IC50 [3] | Activity [4] | Activity [5] | Activity [6] | Activity [7] | Activity [8] | Activity [9] | Ki [10] | Activity [11] | SMILES |
| --- | --- | --- | --- | --- | --- | --- | --- | --- | --- | --- | --- |
| 31000 nM | – | – | – | – | – | – | – | – | – | – | NCCCCc1ccccc1 [4-PHENYL-BUTYLAMINE] |
| – | 28 nM | 3.6 nM | Active | Active | Active | Active | 50% | Active | 1100 nM | Not Active | NC/C(=C/F)CCc1ccc(F)cc1 [MOFEGILINE] |

Reference: ChEMBL document CHEMBL1151754, “Structural and mechanistic studies of mofegiline inhibition of recombinant human monoamine oxidase B” (J Med Chem, 2008)
